The results in this text go back to US20220177533A1, “Recombinant TGF a for wound healing purposes, and the process thereof” (SREE CHITRA TIRUNAL INSTITUTE FOR MEDICAL SCIENCES AND …, priority 2018, published 2022).

The test system of one series is rabbit wounds. The series can be described thus: Wound healing study in rabbits, 4×4 cm incision on the back. Type of series: in vivo, rabbits (New Zealand White). The text has this:
(§1) For this study, 23 rabbits (New Zealand White) are taken and kept in a well-fed, healthy and aseptic condition to ensure the perfect outcome of the experimentation.
Nine randomly selected rabbits (New Zealand White) are taken and a 4×4 cm incision was made right on the back of the animals. Following the application of Anesthetic Ketamine (Aneket, Neon Laboratories, India). This has been followed by application of recombinant TGFα to the “treated” group, and application of placebo, wherein except the growth factor, all the other conditions of “treated” group is followed.
It is found to initiate cell proliferation in rabbit wounds within 7 days. […] Thus, the recombinant growth factor TGF α found to be suitable for enhancing the healing of chronic wounds.

Series [1] has as its system skin (intra-cutaneous reactions). Further details: species or system rabbits (New Zealand White). Particulars: rabbit, in vivo.
Text: (§2) The declaration for skin irritation test is hereby made as the recombinant TGFα induced a total mean score of ‘0.55’ in test material and ‘◯’ in solvent following intra-dermal injection.
as §1

The subject of the next series is L929 cells. Briefly: MTT assay in L929 cells. Type of series: cell-based. The following applies: for cell viability: MTT, L929 cells. As for the experimental part:
Prior testing in said in vivo model, an in vitro testing for the metabolic activity has been performed through executing MTT assay in a specific cell line.
The MTT assay is carried out in L929 cells (ATCC, USA). […] 92.26%, 90.30% and 88.87% under these concentrations respectively. […] The results obtained are depicted in FIG. 3.

Series [2] is described as follows: Antimicrobial / sterility test on test material.
Text: On the safety side, recombinant TGF α passed the skin irritation test, sterility test and cytotoxicity tests, and found to be suitable for enhancing the healing of chronic wounds.
as §2

In the case of “recombinant TGF α: recombinant TGF α of 51 amino acids (Sequence ID No.: 1), carved out of 160 amino acid TGF α, expressed in a prokaryotic system”, the “healing of chronic wounds” value in the series on rabbit wounds (rabbit models) is listed as “enhance the healing of chronic wounds”. Further, the “wound finding on 14th day” value in the series on rabbit wounds (rabbit models, day 14) is “tissue regeneration and formation of epithelial layer”. In addition, the “time to initiation of cell proliferation in rabbit wounds” value in the series on rabbit wounds (rabbit, 4×4 cm incision) is at most 7 days. Further, in the series on rabbit wounds (treated vs control, FIGS. 4C and 4T), the “vasculature and inflammatory response of the healing wound” value was “higher number of vasculature and almost no inflammatory response”. The “intra-cutaneous reactions (erythema and edema)” value in series [1] was “No intra-cutaneous reactions such as erythema and edema”. Further, the “skin irritation test outcome” value in series [1] is on record as “passed”. Moreover, the “total mean score, skin irritation test” value in series [1] is 0.55. For the same substance, the cytotoxicity tests outcome in the series on L929 cells is “passed”. For the same substance, the cell viability in the series on L929 cells (0.0025 μg/ml) is on record as 92.16%; with L929 cells (0.025 μg/ml), 92.26%; with L929 cells (0.25 μg/ml), 90.30%; with L929 cells (2.5 μg/ml), 88.87%. Besides, in series [2], the antimicrobial test outcome is listed as “meeting the requirements for dermal applications”. Moreover, the sterility test outcome in series [2] is given as “passed”.

The term cell viability denotes the share of living cells, or the viability signal relative to a control.
